Reference: PubChem BioAssay (NCI)
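Where inhibition never reached the appropriate level, the endpoint shown equals the highest concentration tested. Otherwise, values were interpolated linearly from a five-concentration, 48-hour dose response in 96-well plates. The concentration for 50% growth inhibition is given as GI50. TGI: concentration producing complete growth inhibition.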

tested on: SN12C renal; experiment: inhibition of tumour cell growth, NCI panel, 48 h

| SMILES | GI50 [µM] | TGI [µM] |
| --- | --- | --- |
| CC(C)(C)OC(=O)N(CCCN(CCn1c2c(c3ccccc3c1=O)C(=O)c1ccccc1-2)C(=O)OC(C)(C)C)CCn1c2c(c3ccccc3c1=O)C(=O)c1ccccc1-2 | > 50 | > 50 |
| Cc1c2c(nn1-c1ccc(S(=O)(=O)/N=C3\SCC(=O)N3C(=O)c3ccccc3)cc1)-c1ccccc1CC2 | 19.2 | 45.8 |
| Cc1ccc(N=NC(C(=O)c2ccccc2)C(=O)c2ccccc2)cc1 |  | 55.2 |
| Cc1ccc(NC(=O)C2C(=O)N(c3ccc(C)c(C)c3)C(=O)/C2=N/O)cc1C (stereo unspecified) |  | > 100 |
| Nc1c(-c2ccc(Br)cc2)[n+]([O-])c2ccccc2[n+]1[O-] |  | > 100 |
| CCCCNC(=O)NS(=O)(=O)c1ccc(N2N=C(c3ccc(C)cc3C)CC2c2ccc(N(C)C)cc2)cc1 (stereo unspecified) | 3.07 | 89.5 |
| C#CC[C@]12CC(=O)CC[C@H]1CC(=O)C2 |  | > 100 |
| CNC=O.[O]=[Ge].[O]=[Ge].[O]=[Ge].[O]=[Ge][OH].[O]=[Ge][OH] |  | > 100 |
| CCOC(=O)c1c(C)n(Cc2ccc(OC)cc2)c2c1cc(O)c1[nH]c3c(c12)CCCC3 | 7.79 | 28.9 |
| N#CCCN(c1ccc(/C=C2\N=C(c3ccc(Cl)cc3)OC2=O)cc1)S(=O)(=O)c1ccccc1 |  | > 100 |
| Cc1cc(NS(=O)(=O)c2ccc(NC(=O)c3cccc4c(=O)c5ccccc5[nH]c34)cc2)no1 |  | > 100 |
| O=C(/C=C/c1ccccc1Cl)c1ccccc1Cl |  | 41.4 |
| CC(C)=[CH][Sb]([Br])([CH]=C(C)C)([CH]=C(C)C)[CH]=C(C)C | 24.7 | > 100 |
| COc1cc([N+](=O)[O-])ccc1NC(=O)C(F)(F)F |  | > 100 |
| N#CCCN(CCC#N)c1ccc(/C=C2\N=C(CN3C(=O)c4ccccc4C3=O)OC2=O)cc1 |  | > 100 |
| N#C/C(C(=S)Nc1ccccc1)=C1/NN=C2c3ccccc3C(=O)NN21 | 40.7 | > 100 |
| CSc1nc(NC2OC(COC(C)=O)C(OC(C)=O)C(OC(C)=O)C2OC(C)=O)c2c(OC(C)=O)c(C)c(=O)oc2n1 (stereo unspecified) |  | > 100 |

| SMILES | GI50 [µM] | TGI [µM] |
| --- | --- | --- |
| CC#CC(=O)Nc1ccccc1CC(c1c[nH]c2ccccc12)c1c[nH]c2ccccc12 |  | 30 |
| COC(=O)C(=O)C(C(=O)C=C(C)C)C(=O)C(=O)Nc1ccc(Cl)cc1C (stereo unspecified) |  | > 100 |
| CC(=O)[O][Hg][c]1c(C)c(C)c(C)c(C)c1C | 1.53 | 2.97 |
| C[C@]12CC[C@@H]3c4ccc(Oc5nc(N6CC6)nc(N6CC6)n5)cc4CC[C@H]3[C@@H]1CCC2=O | 1.74 | 15.8 |
| Cc1cccc(C(C)(C)C)c1NC(=O)CCc1n[nH]c(=S)o1 |  | > 100 |
| Cc1ccc(C(=O)/C=C/c2ccccc2O)c(C)c1 |  | > 100 |
| O=S(O)CCCCSSCCCCSSCCCCS(=O)O |  | > 100 |
| COc1cc2c(/C=C3/C(=O)Nc4cccc(Cl)c43)c(Cl)n(Cc3ccccc3)c2cc1C | 6.18 | > 35 |
| CC(=O)SCCC1c2[nH]c3ccccc3c2CCN1O (stereo unspecified) |  | > 100 |
| CCOC(=O)NC(=O)c1cn(CCCOC(=O)NCCCCCCNC(=O)OCCCn2c(=O)c(C(=O)NC(=O)OCC)cn(C)c2=O)c(=O)n(C)c1=O |  | > 100 |
| COc1ccc2cc(C(=O)/C=C/c3cccc(OC)c3OC)ccc2c1 | 3.83 | 14 |
| CCCCn1c(-c2ccc(C(=O)O/N=C(\N)c3ccc(OC)cc3)cc2)nc(-c2ccccc2)c1-c1ccccc1 | 1.84 | 4.46 |
| O=C1C2=C(CC3C(C2)C3(Br)Br)C(=O)C2=C1CC1C(C2)C1(Br)Br (stereo unspecified) |  | > 100 |
| CC(C)=CC(=O)N1CCN(C(=O)C=C(C)C)CC1 |  | > 100 |
| CCCCC/C=C/C/C=C/CCCCCCCC1=NC(C)(C)CN1C(C)C | 1.71 | 4.08 |
| O=C(CC(=O)N1N=C(c2ccccc2)C(N=Nc2ccc(Cl)cc2)C1=O)Nc1ccccc1Cl (stereo unspecified) |  | > 100 |

tested on: RXF 393 renal; experiment: inhibition of tumour cell growth, NCI panel, 48 h

| SMILES | GI50 [µM] | TGI [µM] |
| --- | --- | --- |
| CC(C)(C)OC(=O)N(CCCN(CCn1c2c(c3ccccc3c1=O)C(=O)c1ccccc1-2)C(=O)OC(C)(C)C)CCn1c2c(c3ccccc3c1=O)C(=O)c1ccccc1-2 | 25.9 | > 50 |
| CCN(CC)C(=O)C/C(C)=N/NC(=O)c1ccncc1 |  | > 100 |
| Cc1c2c(nn1-c1ccc(S(=O)(=O)/N=C3\SCC(=O)N3C(=O)c3ccccc3)cc1)-c1ccccc1CC2 | 28.8 | 77.5 |
| Cc1ccc(NC(=O)C2C(=O)N(c3ccc(C)c(C)c3)C(=O)/C2=N/O)cc1C (stereo unspecified) |  | > 100 |
| CCCCNC(=O)NS(=O)(=O)c1ccc(N2N=C(c3ccc(C)cc3C)CC2c2ccc(N(C)C)cc2)cc1 (stereo unspecified) | 4.06 | 15.7 |
| C#CC[C@]12CC(=O)CC[C@H]1CC(=O)C2 |  | > 100 |
| CNC=O.[O]=[Ge].[O]=[Ge].[O]=[Ge].[O]=[Ge][OH].[O]=[Ge][OH] |  | > 100 |
| CCOC(=O)c1c(C)n(Cc2ccc(OC)cc2)c2c1cc(O)c1[nH]c3c(c12)CCCC3 | 11.6 | 43.5 |
| CC(C)=[CH][Sb]([Br])([CH]=C(C)C)([CH]=C(C)C)[CH]=C(C)C | 21.2 | 81.1 |
| COc1cc(-c2c(C#N)c(N)n3c(nc4ccccc43)c2C#N)cc(Br)c1OC | 4.37 | > 100 |
| N#C/C(C(=S)Nc1ccccc1)=C1/NN=C2c3ccccc3C(=O)NN21 | 0.512 | 22.9 |
| CSc1nc(NC2OC(COC(C)=O)C(OC(C)=O)C(OC(C)=O)C2OC(C)=O)c2c(OC(C)=O)c(C)c(=O)oc2n1 (stereo unspecified) |  | > 100 |
| COC(=O)C(=O)C(C(=O)C=C(C)C)C(=O)C(=O)Nc1ccc(Cl)cc1C (stereo unspecified) |  | > 100 |
| CC(=O)[O][Hg][c]1c(C)c(C)c(C)c(C)c1C | 0.712 | 1.93 |
| COc1cc(C(=O)O[C@H](C(N)=O)[C@]2(C)CO2)c2ccccc2c1 | 17.3 | 47.3 |
| Cc1ccc(C(=O)/C=C/c2ccccc2O)c(C)c1 |  | > 100 |
| O=S(O)CCCCSSCCCCSSCCCCS(=O)O |  | > 100 |
| COc1cc2c(/C=C3/C(=O)Nc4cccc(Cl)c43)c(Cl)n(Cc3ccccc3)c2cc1C | 5.05 | > 29 |
| CC(=O)SCCC1c2[nH]c3ccccc3c2CCN1O (stereo unspecified) |  | > 100 |
| CCOC(=O)NC(=O)c1cn(CCCOC(=O)NCCCCCCNC(=O)OCCCn2c(=O)c(C(=O)NC(=O)OCC)cn(C)c2=O)c(=O)n(C)c1=O |  | 92.4 |
| COc1ccc2cc(C(=O)/C=C/c3cccc(OC)c3OC)ccc2c1 | 3.76 | 12.9 |
| CCCCn1c(-c2ccc(C(=O)O/N=C(\N)c3ccc(OC)cc3)cc2)nc(-c2ccccc2)c1-c1ccccc1 | 1.64 | 3.24 |
| O=C1C2=C(CC3C(C2)C3(Br)Br)C(=O)C2=C1CC1C(C2)C1(Br)Br (stereo unspecified) |  | > 100 |
| CCCCC/C=C/C/C=C/CCCCCCCC1=NC(C)(C)CN1C(C)C | 2.1 | 4.8 |
| CCc1cccc(C)c1NC(C)=O |  | > 100 |

tested on: OVCAR-4 ovarian; experiment: inhibition of tumour cell growth, NCI panel, 48 h

| SMILES | GI50 [µM] | TGI [µM] |
| --- | --- | --- |
| CC(C)(C)OC(=O)N(CCCN(CCn1c2c(c3ccccc3c1=O)C(=O)c1ccccc1-2)C(=O)OC(C)(C)C)CCn1c2c(c3ccccc3c1=O)C(=O)c1ccccc1-2 | > 50 | > 50 |
| Cc1c2c(nn1-c1ccc(S(=O)(=O)/N=C3\SCC(=O)N3C(=O)c3ccccc3)cc1)-c1ccccc1CC2 | 77.5 | > 100 |
| Cc1ccc(N=NC(C(=O)c2ccccc2)C(=O)c2ccccc2)cc1 |  | 61.6 |
| Nc1c(-c2ccc(Br)cc2)[n+]([O-])c2ccccc2[n+]1[O-] |  | > 100 |
| CCCCNC(=O)NS(=O)(=O)c1ccc(N2N=C(c3ccc(C)cc3C)CC2c2ccc(N(C)C)cc2)cc1 (stereo unspecified) | 5.41 | > 100 |
| C#CC[C@]12CC(=O)CC[C@H]1CC(=O)C2 |  | > 100 |
| CNC=O.[O]=[Ge].[O]=[Ge].[O]=[Ge].[O]=[Ge][OH].[O]=[Ge][OH] |  | > 100 |
| CCOC(=O)c1c(C)n(Cc2ccc(OC)cc2)c2c1cc(O)c1[nH]c3c(c12)CCCC3 | 15.6 | 88.6 |
| N#CCCN(c1ccc(/C=C2\N=C(c3ccc(Cl)cc3)OC2=O)cc1)S(=O)(=O)c1ccccc1 |  | > 100 |
| Cc1cc(NS(=O)(=O)c2ccc(NC(=O)c3cccc4c(=O)c5ccccc5[nH]c34)cc2)no1 |  | > 100 |
| O=C(/C=C/c1ccccc1Cl)c1ccccc1Cl |  | 41.3 |
| CC(C)=[CH][Sb]([Br])([CH]=C(C)C)([CH]=C(C)C)[CH]=C(C)C | 22.7 | > 100 |
| COc1cc([N+](=O)[O-])ccc1NC(=O)C(F)(F)F |  | > 100 |
| N#CCCN(CCC#N)c1ccc(/C=C2\N=C(CN3C(=O)c4ccccc4C3=O)OC2=O)cc1 |  | > 100 |
| N#C/C(C(=S)Nc1ccccc1)=C1/NN=C2c3ccccc3C(=O)NN21 | 26.2 | 91.2 |
| CSc1nc(NC2OC(COC(C)=O)C(OC(C)=O)C(OC(C)=O)C2OC(C)=O)c2c(OC(C)=O)c(C)c(=O)oc2n1 (stereo unspecified) |  | > 100 |
| COC(=O)C(=O)C(C(=O)C=C(C)C)C(=O)C(=O)Nc1ccc(Cl)cc1C (stereo unspecified) |  | > 100 |
